The target of this experiment is T1, AR (Homo sapiens, UniProt P10275).
T1 construct: endogenous in cells; host or cells: VCaP cells
T1 sequence (P10275 1-920): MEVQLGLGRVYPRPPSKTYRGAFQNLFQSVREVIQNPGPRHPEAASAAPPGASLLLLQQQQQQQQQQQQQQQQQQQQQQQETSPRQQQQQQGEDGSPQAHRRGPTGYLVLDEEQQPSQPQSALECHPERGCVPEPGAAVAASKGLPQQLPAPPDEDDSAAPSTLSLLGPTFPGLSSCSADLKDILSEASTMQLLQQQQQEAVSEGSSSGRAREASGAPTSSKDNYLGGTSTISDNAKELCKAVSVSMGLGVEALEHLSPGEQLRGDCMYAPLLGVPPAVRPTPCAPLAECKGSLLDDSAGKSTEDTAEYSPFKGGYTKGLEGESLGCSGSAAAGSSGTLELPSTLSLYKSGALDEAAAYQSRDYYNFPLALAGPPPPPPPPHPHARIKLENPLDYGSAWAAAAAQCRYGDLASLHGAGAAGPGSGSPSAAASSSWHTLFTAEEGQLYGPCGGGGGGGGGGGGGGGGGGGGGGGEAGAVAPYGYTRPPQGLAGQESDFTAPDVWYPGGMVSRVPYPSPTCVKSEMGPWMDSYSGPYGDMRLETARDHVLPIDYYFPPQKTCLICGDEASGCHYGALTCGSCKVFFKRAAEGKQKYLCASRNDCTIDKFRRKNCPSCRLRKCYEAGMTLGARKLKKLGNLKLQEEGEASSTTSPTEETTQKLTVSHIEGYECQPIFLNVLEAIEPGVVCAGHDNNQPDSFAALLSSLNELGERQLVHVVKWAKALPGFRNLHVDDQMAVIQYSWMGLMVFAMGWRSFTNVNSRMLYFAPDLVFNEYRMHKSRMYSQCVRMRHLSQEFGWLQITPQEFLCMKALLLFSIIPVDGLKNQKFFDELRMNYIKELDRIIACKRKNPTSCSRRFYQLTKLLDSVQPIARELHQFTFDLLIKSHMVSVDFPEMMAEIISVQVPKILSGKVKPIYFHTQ
Nature of the experiment: VCAP AR Degradation Assay. In kind it is cell-based. The following applies: for Y (AR degradation efficiency, % of DMSO control): class symbols *; for DC50: class symbols A-C, read-out: DC50. In outline:
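Compounds were plated as 10-point 1:3 series reaching 5 μM final, then VCaP cells were seeded onto them and incubated 24 h at 37 °C. Cells were lysed cold, and total AR was measured by sandwich ELISA relative to 0.1% DMSO wells.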

A value given as a limit tells only on which side of the number the result lay.

By DC50 is commonly meant the concentration at which degradation of the target reaches its halfway point. `C[C@@H]1CN(CCOc2ccc(N3C(=S)N(c4cnc(C#N)c(C(F)(F)F)c4)C(=O)C34CCC4)cc2C(C)(F)F)C[C@H](C)N1CC(=O)Nc1cccc(NC2CCC(=O)NC2=O)c1` (stereo partly drawn) [Example 265, 2-((2S,6R)-4-(2-(4-(7-(6-cyano-5-(trifluoromethyl)pyridin-3-yl)-8-oxo-6-thioxo-5,7-diazaspiro[3.4]octan-5-yl)-2-(1,1-difluoroethyl)phenoxy)ethyl)-2,6-dimethylpiperazin-1-yl)-N-(3-(2,6-dioxopiperidin-3-ylamino)phenyl)acetamide]: the “Y (AR degradation efficiency, % of DMSO control)” value was “* (0<Y<=25%)” and the DC50 was under 100 nM.

`CCc1cc(N2C(=S)N(c3cnc(C#N)c(C(F)(F)F)c3)C(=O)C2(C)C)ccc1OCCN1CCN(CC(=O)Nc2cc(Cl)cc(NC3CCC(=O)NC3=O)c2)C2(CC2)C1` (stereo not shown) [Example 102, N-(3-chloro-5-(2,6-dioxopiperidin-3-ylamino)phenyl)-2-(7-(2-(4-(3-(6-cyano-5-(trifluoromethyl)pyridin-3-yl)-5,5-dimethyl-4-oxo-2-thioxoimidazolidin-1-yl)-2-ethylphenoxy)ethyl)-4,7-diazaspiro[2.5]octan-4-yl)acetamide]: the “Y (AR degradation efficiency, % of DMSO control)” value is “* (0<Y<=25%)” and the DC50 is under 100 nM.

With `Cc1c(N2C(=O)C(C)(C)N(c3ccc(OCCN4CCN(CC(=O)Nc5cccc(NC6CCC(=O)NC6=O)c5)CC4)c(F)c3)C2=S)ccc(C#N)c1C(F)(F)F` (stereo not shown) [Example 96, 2-(4-(2-(4-(3-(4-cyano-2-methyl-3-(trifluoromethyl)phenyl)-5,5-dimethyl-4-oxo-2-thioxoimidazolidin-1-yl)-2-fluorophenoxy)ethyl)piperazin-1-yl)-N-(3-(2,6-dioxopiperidin-3-ylamino)phenyl)acetamide], the “Y (AR degradation efficiency, % of DMSO control)” value is given as “*** (35%<Y<50%)” and the DC50 is under 100 nM.

As to `CCc1cc(N2C(=S)N(c3ccc(C#N)c(C(F)(F)F)c3)C(=O)C2(C)C)ccc1OCCN1CCN(CC(=O)Nc2cc(NC3CCC(=O)NC3=O)cc(F)c2F)CC1` (stereo not shown) [Example 70, 2-(4-(2-(4-(3-(4-cyano-3-(trifluoromethyl)phenyl)-5,5-dimethyl-4-oxo-2-thioxoimidazolidin-1-yl)-2-ethylphenoxy)ethyl)piperazin-1-yl)-N-(5-(2,6-dioxopiperidin-3-ylamino)-2,3-difluorophenyl)acetamide], the “Y (AR degradation efficiency, % of DMSO control)” value was “* (0<Y<=25%)” and the DC50 was under 100 nM.

For the molecule `CCc1cc(N2C(=S)N(c3cnc(C#N)c(C(F)(F)F)c3)C(=O)C2(C)C)ccc1OCCN1CCN(CC(=O)Nc2cccc(N[C@@H]3CCC(=O)NC3=O)c2)[C@H](C)C1` [Example 138, 2-((R)-4-(2-(4-(3-(6-cyano-5-(trifluoromethyl)pyridin-3-yl)-5,5-dimethyl-4-oxo-2-thioxoimidazolidin-1-yl)-2-ethylphenoxy)ethyl)-2-methylpiperazin-1-yl)-N-(3-((R)-2,6-dioxopiperidin-3-ylamino)phenyl)acetamide], the “Y (AR degradation efficiency, % of DMSO control)” value is “* (0<Y<=25%)” and the DC50 was under 100 nM.

For the molecule `CCc1cc(N2C(=S)N(c3ccc(C#N)c(C(F)(F)F)c3)C(=O)C2(C)C)cnc1OCCN1C[C@@H](C)N(CC(=O)Nc2cccc(NC3CCC(=O)NC3=O)c2)[C@@H](C)C1` (stereo partly drawn) [Example 216, 2-((2R,6S)-4-(2-(5-(3-(4-cyano-3-(trifluoromethyl)phenyl)-5,5-dimethyl-4-oxo-2-thioxoimidazolidin-1-yl)-3-ethylpyridin-2-yloxy)ethyl)-2,6-dimethylpiperazin-1-yl)-N-(3-(2,6-dioxopiperidin-3-ylamino)phenyl)acetamide], the “Y (AR degradation efficiency, % of DMSO control)” value is reported as “** (25%<Y<=35%)” and the DC50 is under 100 nM.

For `C[C@@H]1CN(CC(=O)Nc2cccc(NC3CCC(=O)NC3=O)c2)[C@H](C)CN1CCOc1ccc(N2C(=S)N(c3cnc(C#N)c(C(F)(F)F)c3)C(=O)C2(C)C)cc1C1CC1` (stereo partly drawn) [Example 234, 2-((2R,5R)-4-(2-(4-(3-(6-cyano-5-(trifluoromethyl)pyridin-3-yl)-5,5-dimethyl-4-oxo-2-thioxoimidazolidin-1-yl)-2-cyclopropylphenoxy)ethyl)-2,5-dimethylpiperazin-1-yl)-N-(3-(2,6-dioxopiperidin-3-ylamino)phenyl)acetamide], the “Y (AR degradation efficiency, % of DMSO control)” value is “* (0<Y<=25%)” and the DC50 was under 100 nM.

Consider `CCc1cc(N2C(=S)N(c3ccc(C#N)c(C(F)(F)F)c3)C(=O)C23CCCCC3)ccc1OCCN1C[C@@H](C)N(CC(=O)Nc2cccc(NC3CCC(=O)NC3=O)c2)[C@@H](C)C1` (stereo partly drawn) [Example 264, 2-((2S,6R)-4-(2-(4-(3-(4-cyano-3-(trifluoromethyl)phenyl)-4-oxo-2-thioxo-1,3-diazaspiro[4.5]decan-1-yl)-2-ethylphenoxy)ethyl)-2,6-dimethylpiperazin-1-yl)-N-(3-(2,6-dioxopiperidin-3-ylamino)phenyl)acetamide], for which the “Y (AR degradation efficiency, % of DMSO control)” value is “* (0<Y<=25%)” and the DC50 was under 100 nM.

Source of the values: patent US12404241B2 (Celgene Corporation, priority 2018, dated 2025).
